Data: patent US20230391826A1, “COMPOSITIONS AND METHODS FOR TREATING DISEASES” (Sanford Burnham Prebys Medical Discovery Institute, priority 2020, published 2023)

Tests used:
EphA2 LBD = target: T1, EphA2 LBD (Homo sapiens, UniProt P29317); settings: previous studies, cited from earlier work
T1 construct: made in house; host or cells: E. coli Origami 2(DE3)

EphA2 = EphA2 (Homo sapiens, UniProt P29317); assay: EphA2 activation (Y588 phosphorylation) in cells by monomeric YSA derivatives; format: cell-based; set-up: EphA2 is the prevalent endogenously expressed EphA receptor in these cells; endogenous in cells; host or cells: PC3 prostate cancer cells
Sequence of EphA2 (P29317 24-976): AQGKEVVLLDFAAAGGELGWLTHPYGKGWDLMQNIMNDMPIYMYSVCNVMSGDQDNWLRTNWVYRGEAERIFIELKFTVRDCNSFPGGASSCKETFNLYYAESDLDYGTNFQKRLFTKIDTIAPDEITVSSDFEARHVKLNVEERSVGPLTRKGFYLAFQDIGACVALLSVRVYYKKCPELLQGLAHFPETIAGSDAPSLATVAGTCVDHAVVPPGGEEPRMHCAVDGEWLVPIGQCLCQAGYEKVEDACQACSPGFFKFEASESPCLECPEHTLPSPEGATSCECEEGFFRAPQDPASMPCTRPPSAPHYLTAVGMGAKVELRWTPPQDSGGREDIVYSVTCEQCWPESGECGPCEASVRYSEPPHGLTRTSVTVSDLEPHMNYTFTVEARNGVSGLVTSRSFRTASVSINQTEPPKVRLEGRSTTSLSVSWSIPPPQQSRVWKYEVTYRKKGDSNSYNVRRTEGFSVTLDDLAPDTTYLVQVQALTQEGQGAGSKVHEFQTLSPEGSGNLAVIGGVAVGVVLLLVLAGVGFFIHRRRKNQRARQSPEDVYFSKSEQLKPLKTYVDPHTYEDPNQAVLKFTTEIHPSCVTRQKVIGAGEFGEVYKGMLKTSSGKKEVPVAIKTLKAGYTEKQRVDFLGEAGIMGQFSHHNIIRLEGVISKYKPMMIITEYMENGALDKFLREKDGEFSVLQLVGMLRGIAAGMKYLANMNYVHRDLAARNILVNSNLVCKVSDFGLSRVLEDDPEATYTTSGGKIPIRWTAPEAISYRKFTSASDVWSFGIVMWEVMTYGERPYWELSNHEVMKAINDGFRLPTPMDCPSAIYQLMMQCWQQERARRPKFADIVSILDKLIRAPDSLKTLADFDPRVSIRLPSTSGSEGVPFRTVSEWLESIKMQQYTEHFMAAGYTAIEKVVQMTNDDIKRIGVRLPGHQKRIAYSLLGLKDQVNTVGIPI
Text: However, as expected given their much higher potency, these two peptides are active at nanomolar concentrations. The C-terminal biotin promotes the agonistic activity of YSA derivative peptides. […] This is confirmed with the crystal structures. Thus, peptides with 1 to 7 residues between Prol 0, which is conserved in all YSA derivatives of Table 2, and the Lys-biotin residue, can all efficiently activate EphA2. […] Non-amidated β[…] has the ability to activate EphA2 in cells, even though the concentrations needed are about 10-fold higher than for the biotinylated peptide and the maximal […] phosphorylation induced by saturating peptide concentrations is about 40% lower. The C-terminally amidated version of the peptide loses the ability to activate EphA2, consistent with a role of the C-terminal negative charge for EphA2 activation even in the absence of biotin.

T1 sequence (P29317 28-200): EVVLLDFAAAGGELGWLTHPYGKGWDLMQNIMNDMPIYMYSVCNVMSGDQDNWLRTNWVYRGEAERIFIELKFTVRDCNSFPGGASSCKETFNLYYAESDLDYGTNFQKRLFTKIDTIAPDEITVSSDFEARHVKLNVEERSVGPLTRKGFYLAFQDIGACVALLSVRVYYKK

For CC(C)C[C@H](NC(=O)[C@H](Cc1c[nH]c2ccccc12)NC(=O)CCN)C(=O)N[C@@H](C)C(=O)N[C@@H](Cc1ccc(O)cc1)C(=O)N1CCC[C@H]1C(=O)N[C@@H](CC(=O)O)C(=O)N[C@@H](CO)C(=O)N[C@H](C(=O)N1CCC[C@H]1C(=O)N[C@@H](Cc1ccc(O)cc1)C(=O)N[C@@H](CCCNC(=N)N)C(=O)N1CCC[C@H]1C(=O)N[C@@H](CCCCN)C(=O)O)C(C)C [βA-WLA-YRPK], the “improvement of binding affinity compared to monomeric YSA-GSGSK-bio” value (EphA2 LBD) is given as 50 fold, the Kd (EphA2 LBD; read-out: binding affinity for the EphA2 LBD measured by ITC) is given as roughly 0.2 µM and the “maximal Y588 phosphorylation at saturating peptide concentrations, lower than the biotinylated peptide” value (EphA2) is given as “about 40%”. For the same compound, the “concentrations needed to activate EphA2 in cells relative to the biotinylated peptide” value (EphA2; higher than for βA-WLA-YRPK-bio) was “about 10 fold”.
